Data taken from patent US20250332096A1, “BEVERAGE FORMULATION AND METHOD OF PROMOTING CELLULAR HYDRATION BY ENHANCING INTRACELLULAR PERMEATION” (Eastpond Laboratories Limited, priority 2024, published 2025).

Experiments:
C. elegans = C. elegans longevity in hydration modified water (Example 5); format: in vivo; conditions: for Animals alive, % of initial: 0.1% w/w in nutritive media, USA I water
Description: C. elegans nematodes were grown in petri-type dishes containing normal nutrient liquid media prepared alternatively with USA I water (described in Example 2) lacking any further additive component (control) or the same water supplemented with a parent α-, β-, or γ-cyclodextrin, and/or a bioactive agent, as an active component of cellular hydration. Fifty ±3 worms were transferred to each dish. Each condition was repeated in triplicate. Experiments were repeated for USA II and BP I waters described in Example 2.
• A. Addition of parent α-, β- and γ-cyclodextrins. • B. Addition of L-arginine and nicotinamide. • C. Addition of inclusion complexes of cyclodextrins with L-arginine and nicotinamide.

[1] = Turbidity of test solutions; format: physicochemical; conditions: purified water (reference)
Description: (§1) 1:1 mol/mol stoichiometry complexes were prepared for the experiment. Nicotinic acid/alpha-CD complex was prepared by dissolving 11.22 g nicotinic acid and 98.63 g alpha-CD (89.66 g on dry basis) in 700 ml purified water. Nicotinamide/alpha-CD complex was prepared by dissolving 5.57 g nicotinamide and 49.3 g alpha-CD (44.4 g on dry basis) in 350 ml purified water and L-arginine/alpha-CD complex was prepared by dissolving 15.18 g L-arginine and 94.26 g alpha-CD (85.69 g on dry basis) in 700 ml purified water. Further, for all the three complexes, the liquid was frozen in dry ice bath and lyophilized. The dry lyophilizate was ground and sieved.
(§2) Clarity, pH, conductivity, density, viscosity, turbidity, surface tension and osmolality were determined in solutions prepared with purified water. […]

pH of test solutions = format: physicochemical; conditions: purified water
Description: as §1, §2

[2] = Surface tension of test solutions; format: physicochemical; conditions: purified water
Description: as §1, §2

[3] = Density measurements of test solutions; format: physicochemical
Description: The current study further manifests the density measurements in a cyclodextrin concentration dependent manner.
Water samples used were bottled water and tap water; wherein the tap water comprises the following impurities and properties: Free active chlorine (0.18 mg/1), Chloride (24 mg/1), Iron (6 μg/1), Manganese (2 μg/1), Nitrate (9 mg/1), Nitrite (<0.03 mg/1), Ammonium (<0.04 mg/1), Hardness of water (122 mg/l CaO), Conductivity (442 μS/cm) and pH 8. Purified water was produced by removal of dissolved ions by Merck/Millipore Synergy® Water Purification System at Cyclolab. The water quality produced Type 1 water (18.2 MΩ·cm at 25° C. ultrapure water) from pretreated water.
as §1, §2
However, it may not be established exactly which ionic species (Mg2+, Ca2+, Na+) causes this perturbation.

[4] = Visual inspection (clarity) of test solutions; format: physicochemical; conditions: purified water
Description: as §1, §2

[5] = Viscosity of test solutions; format: physicochemical; conditions: purified water, 2.00%
Description: as §1
Clarity, pH, conductivity, density, viscosity, turbidity, surface tension and osmolality were determined in solutions prepared with purified water.

[6] = Conductivity of test solutions; format: physicochemical; conditions: purified water
Description: as §1, §2

With OC[C@H]1O[C@@H]2O[C@H]3[C@H](O)[C@@H](O)[C@@H](O[C@H]4[C@H](O)[C@@H](O)[C@@H](O[C@H]5[C@H](O)[C@@H](O)[C@@H](O[C@H]6[C@H](O)[C@@H](O)[C@@H](O[C@H]7[C@H](O)[C@@H](O)[C@@H](O[C@H]8[C@H](O)[C@@H](O)[C@@H](O[C@H]9[C@H](O)[C@@H](O)[C@@H](O[C@H]1[C@H](O)[C@H]2O)O[C@@H]9CO)O[C@@H]8CO)O[C@@H]7CO)O[C@@H]6CO)O[C@@H]5CO)O[C@@H]4CO)O[C@@H]3CO [Gamma Cyclodextrin, γ-cyclodextrin] the “number of animals surviving to old ages” value (C. elegans; after day 15, 0.1% w/w) was “significantly increased”, the “Animals alive, % of initial” value (C. elegans; life span 10 days) was 100 % of initial and the “Animals alive, % of initial” value (C. elegans; life span 15 days) was 13 % of initial. The “Animals alive, % of initial” value (C. elegans; life span 18 days) was 2 % of initial, the “Turbidity (Abs, λ = 410 nm)” value ([1]; 1.00%) was 0.065 Abs and the “Turbidity (Abs, λ = 410 nm)” value ([1]; 2.00%) was 0.108 Abs. It also gave a pH (pH of test solutions; 0.05%) of 6.82, a pH (pH of test solutions; 0.10%) of 6.79 and a pH (pH of test solutions; 1.00%) of 6.87. For the same compound, the pH (pH of test solutions; 2.00%) was 6.77, the “Surface Tension” value ([2]; 0.05%) was 72 mN · m^−1 and the “Surface Tension” value ([2]; 0.10%) was 72 mN · m^−1. For the same compound, the “Surface Tension” value ([2]; 1.00%) was 73 mN · m^−1, the “Surface Tension” value ([2]; 2.00%) was 73 mN · m^−1 and the Density (at 22 C.) ([3]; Tap water, 0.05%) was 0.9997 ± 0.0007 g/cm³. The Density (at 22 C.) ([3]; Tap water, 0.10%) was 1.0002 ± 0.0004 g/cm³, the Density (at 22 C.) ([3]; Tap water, 1.00%) was 1.0035 ± 0.0007 g/cm³ and the Density (at 22 C.) ([3]; Tap water, 2.00%) was 1.0094 ± 0.0006 g/cm³. For the same compound, the Density (at 22 C.) ([3]; purified water, 0.05%) was 0.995 ± 0.001 g/cm³, the “Visual Inspection” value ([4]; 0.05%) was “clear” and the “Visual Inspection” value ([4]; 0.10%) was “clear”. For the same compound, the “Visual Inspection” value ([4]; 1.00%) was “hazy”, the “Visual Inspection” value ([4]; 2.00%) was “hazy” and the “Viscosity (25 C.)” value [5] was 0.97 cP. The Conductivity ([6]; 0.05%) was 25.0 μS · cm^−1, the Conductivity ([6]; 0.10%) was 25.0 μS · cm^−1 and the Conductivity ([6]; 1.00%) was 27.0 μS · cm^−1. For the same compound, the Conductivity ([6]; 2.00%) was 27.0 μS · cm^−1.
